Assays:
[1] = Solid form transformation on drying; format: physicochemical; conditions: drying under heating, preferably 50 C. overnight under vacuum, about 10-100 mm Hg; monosodium salt
Experimental: The various forms are related in that drying of one form may lead to another form. Drying may be carried out under ambient or reduced pressure under heating. The temperature during heating is preferably about 40° C. to about 60° C., more preferably about 40° C. to about 50° C. The drying for a few days, such as about two days may be sufficient for transformation. In a preferred embodiment, drying is performed at 50C. overnight under vacuum, about 10-100 mm Hg.
Some solutions were stirred at room temperature; others were heated to the indicated temperature. The precipitate was recovered by filtration and washed with the solvent (5 mL) to obtain a wet sample. A portion of the wet sample was dried overnight in a vacuum at 50° C. at 10-50 mm Hg to obtain a dry sample. The wet and dry samples were analyzed by X-ray diffraction.

[2] = Solid form transformation while stirred in organic solvent (slurry); format: physicochemical; conditions: stirred in an organic solvent for more than about 2 days, e.g. dichloromethane and optionally heptane
Excerpt: The various forms are related in that one form may transform to another while in an organic solvent, such as a slurry resulting from crystallization. […] Such transformation occurs for example in a reaction mixture containing dichloromethane and optionally a C5 to C12 hydrocarbon such as heptane.

[3] = powder; cited from earlier work

| Compound | form obtained on drying [1] | form transformation in organic solvent [2] | hygroscopicity [3] |
| --- | --- | --- | --- |
| CC(C)(O)c1ccccc1CC[C@@H](SCC1(CC(=O)[O-])CC1)c1cccc(/C=C/c2ccc3ccc(Cl)cc3n2)c1.[Na+] [Form B1, [R-(E)]-1-[[[1-[3-[2-(7-chloro-2-quinolinyl)ethenyl]phenyl]-3-[2-(1-hydroxy-1-methylethyl)phenyl]propyl]thio]methyl]cyclopropaneacetic acid, monosodium salt] | Form C | transforms to Form C | – |
| CC(C)(O)c1ccccc1CC[C@@H](SCC1(CC(=O)[O-])CC1)c1cccc(/C=C/c2ccc3ccc(Cl)cc3n2)c1.[Na+] [Form B2, [R-(E)]-1-[[[1-[3-[2-(7-chloro-2-quinolinyl)ethenyl]phenyl]-3-[2-(1-hydroxy-1-methylethyl)phenyl]propyl]thio]methyl]cyclopropaneacetic acid, monosodium salt] | Form B1 or form C | – | – |
| CC(C)(O)c1ccccc1CC[C@@H](SCC1(CC(=O)[O-])CC1)c1cccc(/C=C/c2ccc3ccc(Cl)cc3n2)c1.[Na+] [Montelukast sodium, [R-(E)]-1-[[[1-[3-[2-(7-chloro-2-quinolinyl)ethenyl]phenyl]-3-[2-(1-hydroxy-1-methylethyl)phenyl]propyl]thio]methyl]cyclopropaneacetic acid, monosodium salt] | – | – | hygroscopic |

— patent US20050187244A1 (Entire Interest., priority 2004, published 2005)
